We go through one compound from patent US20240180841A1, “ENTERIC TABLET CONTAINING DIMETHYL FUMARATE” (CURACLE CO., LTD., priority 2019, published 2024).

The data set in a line: Weight loss rate at 60° C. for 2 weeks (sublimation). The format is physicochemical. Conditions: drying and sublimation. Here is the method:
Dimethyl fumarate has a property of being lost by sublimation depending on the storage temperature. Accordingly, in order to confirm the degree of weight loss according to the coating drying temperature, the degree of weight loss was repeatedly evaluated for 2 weeks at a temperature of 60° C. for dimethyl fumarate and a mixture thereof. At this time, the mixture of dimethyl fumarate was a mixture in which dimethyl fumarate and other pharmaceutically acceptable additives were mixed.

Where a name gives a salt, the structure may show the parent alone.

Consider `COC(=O)/C=C/C(=O)OC` [dimethyl fumarate, Dimethyl fumarate], for which the “Weight loss in words” value was “continued to lose weight”.
